System: Rat Chronic Constriction Injury Model
Conditions: 0.02 mg/kg/day subcutaneously
Description: A 2-month chronic constriction injury (CCI) model of neuropathic pain was used to evaluate different formulations of a clonidine, encapsulated in bioerodable polymers compared to fluocinolone given subcutaneously (SC). Different formulations as provided in Table 5 below were evaluated for reducing pain-associated behaviors: Thermal paw withdrawal latency was evaluated at baseline 7, 14, 21, 28, 35, 42, 49, 56 and […] mechanical threshold was evaluated at 8, 15, 22, 29, 36, 43, 50, 57 and 64 days post-operatively.
The inventor evaluated the efficacy of a five Month Clonidine/Polyrner Drug Depot in the Rat Chronic Constriction Injury Model. The animal model was the Bennett Model (Wistar rat). The purpose: To determine whether a five month polymer clonidine-eluting depot can improve pain associated behavioral responses in a rat model of neuropathic pain.
Experimental Design: Four loose chromic gut ligatures, 1 mm apart, were tied around the common sciatic nerve at mid-thigh. Each animal received treatment of test or control article-according to the dosing described in Table 5.
The inventor has conducted the present study for a period of 64 days and have employed the following two tests: (1) the Hargreaves test; and (2) the von Frey test. The Hargreaves Tests of Thermal Hyperalgesia were conducted on days 7, 14, 21, 28, 35, 42, 49, 56 and 63. […]

Clc1cccc(Cl)c1N=C1NCCN1 [clonidine, 2,6-dichloro-N-2-imidazolidinyldenebenzenamine]
pain behavioral response (measured as a percentage of baseline) for thermal hyperalgesia (FIG. 3, vs unloaded polymer depots 45%): 58% | pain behavioral response (percentage of baseline) for mechanical allodynia, in words (FIG. 4, compared to unloaded polymer depots): reduced the behavioral response

Reference: patent US8617583B2, “Alpha adrenergic receptor agonists for prevention or treatment of a hematoma, edema, and/or deep vein thrombosis” (Warsaw Orthopedic, Inc., priority 2009, dated 2013)
